Assay in all cases: NCI anticancer screen, dose series, 48 h
The subject of assay [1] is MCF7.
In assay [2] the test system is SK-MEL-5.
For assay [3], the system named is T47D.
The subject of assay [4] is SF-268.
The subject of assay [5] is SR.
Assay [6] concerns MDA-MB-435.
In assay [7] the test system is SN12C.
Assay [8] concerns SNB-19.
The subject of assay [9] is RXF 393.
The test system of assay [10] is PC-3.
Assay [11] concerns ACHN.
In assay [12] the test system is K562.
Assay [13] deals with DU-145.
Assay [14] concerns NCI/ADR-RES.
Assay [15] relates to MDA-MB-231.
The test system of assay [16] is DMS-114.
The subject of assay [17] is DLD-1.
For assay [18], the system named is DMS-273.
The test system of assay [19] is HOP-18.
In assay [20] the test system is KM-20L2.

The results in this text go back to ChEMBL document CHEMBL1201862, “PubChem BioAssay data set” (2004).

The structures appear in SMILES notation.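 Five compound concentrations were applied to cells in 96-well plates for 48 hours; endpoints were derived by simple linear interpolation of the resulting dose-response curve. At the GI50, growth is halved.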 Calls of active or inactive are those of the source. No stated cut-off is given here; in the data, active = GI50 up to about 1.1 µM and inactive = higher. Bounds are passed on as bounds.

Turning to `CC(=O)Nc1ccc2[nH]c(C(=O)N3CC(CCl)c4c3cc(N)c3ccccc43)cc2c1` (stereo not given), the GI50 was 0.0107 µM (active) in assay [1]; 0.0115 µM (active) in [2]; < 0.0164 µM (active) in assay [3]; < 0.01 µM (active) in assay [4]; < 0.01 µM (active) in assay [5]; 0.0147 µM (active) in assay [6]. The GI50 in assay [7] is 0.0118 µM (active); in assay [8] it was < 0.0217 µM (active); in [9], < 0.01 µM (active); in assay [10], < 0.016 µM (active); in [11], < 0.01 µM (active); in assay [12], < 0.0163 µM (active). The GI50 in assay [13] was < 0.01 µM (active); in [14], 0.0182 µM (active); in [15] it was < 0.0237 µM (active).

As to `CCCCCCCCCOCC(COP(=O)([O-])OCC[N+](C)(C)C)OC` (stereo not given), the GI50 in [16] was > 100 µM (inactive); in [1], 68.7 µM (inactive); in assay [2], > 100 µM (inactive); in assay [4] it was > 100 µM (inactive); in assay [7] it was > 100 µM (inactive); in assay [17], > 100 µM (inactive). Further, the GI50 in [8], in [9], in [18], in assay [19], in assay [12] and in assay [14] was > 100 µM (inactive) each time. Further, the GI50 in [20] is > 100 µM (inactive).

For `COc1ccc(N2CN(C)CSC2=S)cc1`, the GI50 in assay [1] is 89.7 µM (inactive); in assay [2], > 100 µM (inactive); in assay [3], 54 µM (inactive); in assay [4], 97.9 µM (inactive); in assay [6] it was 43.3 µM (inactive); in assay [7] it was > 100 µM (inactive). Besides, the GI50 in assay [8] was > 100 µM (inactive); in assay [9], > 100 µM (inactive); in assay [10], > 100 µM (inactive); in [11], > 100 µM (inactive); in assay [12] it was 21.1 µM (inactive); in assay [13] it was > 100 µM (inactive). Also, the GI50 in assay [14] and in assay [15] was > 100 µM (inactive) throughout.

Take `CCCOC1OC(CS(=O)(=O)O)C(OC(C)=O)C(OC(C)=O)C1OC(C)=O` (stereo not given): the GI50 in [1], in [2], in assay [3], in assay [5], in assay [6] and in assay [7] was > 100 µM (inactive) in each case. The GI50 in assay [8], in [9], in assay [10], in assay [12], in assay [13] and in [14] was > 100 µM (inactive) in each case. In addition, the GI50 in assay [15] was > 100 µM (inactive).

Consider `COC(=O)Cc1c(-c2c(CC(=O)OC)c3ccccc3n2C2OC(COC(C)=O)C(OC(C)=O)C(OC(C)=O)C2OC(C)=O)[nH]c2ccccc12` (stereo not given), for which the GI50 in assay [2], in assay [4], in [5], in assay [6], in assay [7] and in assay [8] was > 100 µM (inactive) throughout. In addition, the results for the GI50 in assay [10], in [13] and in assay [15] were > 100 µM (inactive), > 100 µM (inactive) and 43.2 µM (inactive), respectively.

As for `O=C1CCC(c2ccc(Cl)cc2)=NN1c1nsc2ccccc12`, the GI50 in [16] is 27.9 µM (inactive); in assay [2], > 10 µM (inactive); in assay [4], 38.9 µM (inactive); in assay [5], 22.3 µM (inactive); in assay [7], 25.6 µM (inactive); in [8] it was 34.4 µM (inactive). The GI50 was 11.5 µM (inactive) in assay [9]; 25.6 µM (inactive) in assay [18]; 18.7 µM (inactive) in assay [19]; 34.1 µM (inactive) in assay [11]; 22.2 µM (inactive) in assay [12]; 35.2 µM (inactive) in [20].

For `O=C(N/N=C\c1cccc2ccccc12)Nc1ccccc1`, the GI50 in [1], in [2], in assay [3], in [5], in assay [6] and in [7] was > 100 µM (inactive) throughout. Also, the GI50 in [8], in assay [9], in [10], in assay [12], in [13] and in assay [14] was > 100 µM (inactive) throughout.

As for `COc1ccc(-c2c3ccccc3c(-c3ccc(OCCCCCBr)cc3)c3ccccc23)cc1`, the GI50 in [16], in assay [4], in [5], in assay [7], in assay [17] and in [8] was > 100 µM (inactive) each time. In addition, the GI50 in assay [18], in assay [11], in [12] and in assay [20] was > 100 µM (inactive) each time.

With `CN(C)[C@@H]1C(O)=C(C(=O)NCN2CCN(C(=N)NC(=N)N)CC2)C(=O)[C@@]2(O)C(O)=C3C(=O)c4c(O)cccc4[C@@](C)(O)[C@H]3C[C@@H]12`, the GI50 in assay [2] is 0.183 µM (active); in [4] it was 0.518 µM (active); in [5] it was 0.0406 µM (active); in assay [7], 0.338 µM (active); in assay [17] it was 0.0466 µM (active); in [8] it was 0.314 µM (active). Besides, the GI50 is 0.12 µM (active) in assay [9]; 0.252 µM (active) in assay [18]; 0.306 µM (active) in [11]; 0.0401 µM (active) in assay [12]; 0.299 µM (active) in [20].

Take `Cc1ccc(S(=O)(=O)NCCCSCCSCCCN)cc1`: the GI50 in assay [1], in assay [2], in assay [3], in [4], in assay [5] and in assay [6] was > 100 µM (inactive) throughout. The GI50 in [7], in [8], in assay [9], in [10], in assay [11] and in assay [12] was > 100 µM (inactive) throughout. The GI50 in assay [13], in assay [14] and in assay [15] was > 100 µM (inactive) each time.

As for `O=C1N[C@@H]2C(=C[C@H](O)[C@@H](O)[C@H]2O)c2cc3c(c(O)c21)OCO3` [NARCICLASINE], the GI50 in assay [2], in assay [4], in [7], in assay [17], in [8] and in assay [18] was 0.045 µM (active) throughout. Also, the GI50 is 0.0535 µM (active) in [19], 0.045 µM (active) in [12], 0.045 µM (active) in assay [14] and 0.045 µM (active) in assay [20].

As to `Cc1ccc2c(=O)c3ccccc3sc2c1`, the GI50 in assay [2] is > 100 µM (inactive); in [4], > 100 µM (inactive); in assay [5], 79.4 µM (inactive); in assay [7], > 100 µM (inactive); in assay [17], > 100 µM (inactive); in assay [8], 66.4 µM (inactive). The GI50 in assay [9] is > 100 µM (inactive); in assay [18], > 100 µM (inactive); in [19], 6.19 µM (inactive); in [11], > 100 µM (inactive); in assay [12] it was > 100 µM (inactive); in [20], > 100 µM (inactive).

`Cc1c2cc[n+](C)cc2c(C)c2c1[nH]c1ccccc12`: the GI50 in assay [16] was 0.275 µM (active); in [1], 3.08 µM (inactive); in assay [2], 1.35 µM (inactive); in assay [4] it was 0.408 µM (active); in assay [7] it was 0.16 µM (active); in assay [17], 1.68 µM (inactive). Further, the GI50 in [8] was 0.274 µM (active); in assay [9] it was 1.75 µM (inactive); in [18] it was 1.5 µM (inactive); in assay [19] it was 2.82 µM (inactive); in [12] it was 2.79 µM (inactive).

In the case of `CCCCCCCCCCCCCCCC(=O)OC1C(O)C(CO)OC(OC)C1NC(=O)N(CCCl)N=O` (stereo not given), the GI50 in assay [16] was 12.1 µM (inactive); in assay [2], 13.2 µM (inactive); in [4] it was 2.64 µM (inactive); in [5] it was 4.46 µM (inactive); in assay [17] it was 16.2 µM (inactive); in [8], 10.4 µM (inactive). The GI50 is 13.1 µM (inactive) in assay [18]; 15.8 µM (inactive) in assay [19]; 8.81 µM (inactive) in [11]; 22.3 µM (inactive) in [12]; 17.9 µM (inactive) in assay [20].

For `O=[PH](O)c1cccs1`, the GI50 in assay [16], in assay [2], in assay [4], in assay [7], in assay [17] and in assay [8] was > 100 µM (inactive) each time. In addition, the GI50 in assay [9], in [18], in assay [19], in [11], in assay [12] and in [20] was > 100 µM (inactive) in each case.

For `C=CCn1c(=O)c(Br)nn(CCOCP(=O)(OCC)OCC)c1=O`, the GI50 is > 100 µM (inactive) in [1]; 61.2 µM (inactive) in assay [2]; > 100 µM (inactive) in assay [3]; > 100 µM (inactive) in [4]; > 100 µM (inactive) in assay [5]; > 100 µM (inactive) in assay [6]. Further, the GI50 in assay [7], in [8], in assay [9], in assay [10], in assay [11] and in [12] was > 100 µM (inactive) in each case. The GI50 in [13], in assay [14] and in [15] was > 100 µM (inactive) in each case.
